Assay results: patent US4798811A, “Combination preparation” (BASF Aktiengesellschaft, priority 1986, dated 1989)

Tests used:
[1] = system: thrombocyte aggregation; assay: Ex vivo inhibition of thrombocyte aggregation after oral administration to five test persons; type: in vivo; conditions: four hours after administration
Protocol: (§1) The following methods were used:
(§2) Venous blood was taken from four test persons and rendered unclottable by adding citrate, and thrombocyte-rich plasma was then obtained from this blood by centrifuging under 300 g for 10 minutes at 4° C. The addition of adrenalin (final concentration 5×10^-8 mole/liter) and collagen (final concentration 2×10^-3 g/liter) to the thrombocyte-rich plasma caused aggregation, which was measured as the change in extinction using a Born aggregometer MK 3. The maximum change in extinction per second was used as a measure of aggregation. The percentage inhibition of aggregation was determined by comparing the values before and after administration of the substance.
2. Ex vivo investigations
The candidate compounds were filled into stomach-soluble gelatine capsules and administered orally to five test persons. Venous blood was taken before administration of the substances and four hours after administration. This blood was prepared as under 1 and made to aggregate. The percentage inhibition of aggregation was determined by comparing the values before and after administration of the substance.

[2] = system: thrombocyte aggregation; assay: In vitro inhibition of thrombocyte aggregation induced by adrenalin and collagen in thrombocyte-rich plasma; type: cell-based, test persons
Protocol: as §1
1. In vitro investigations
as §2

Structure (SMILES) | Aggregation inhibition (%) ([1]; oral Dosage 60 mg) | inhibition at 1 µg/mL ([2]; Conc. 1 mg/l, adrenalin 5×10^-8 mole/liter and collagen 2×10^-3 g/liter) [%] | aggregation inhibition (in words) ([2]; dose of 1.0 mg/l) | Aggregation inhibition (%) ([1]; oral Dosage 240 mg) | inhibition at 2 µg/mL ([2]; Conc. 2 mg/l, adrenalin 5×10^-8 mole/liter and collagen 2×10^-3 g/liter) [%] | inhibition at 10 µg/mL ([2]; Conc. 10 mg/l, adrenalin 5×10^-8 mole/liter and collagen 2×10^-3 g/liter) [%]
CC(=O)Oc1ccccc1C(=O)O [ASA, acetylsalicylic acid] | 0 | 0 | ineffective |  |  | 
COc1ccc(CCN(C)CCCC(C#N)(c2ccc(OC)c(OC)c2)C(C)C)cc1OC (stereo not drawn) [Verapamil, 1,7-bis-(3,4-dimethoxyphenyl)-3-methylaza-7-cyano-8-methylnonane] |  |  |  | 33 | 8.7 | 31
